Data from patent US12685741B2, “N-acetylneuraminic acid compositions and methods of use” (LifeScience AS, priority 2017, dated 2026).

Tests used:
herpes = test: Oral NANA in a subject with chronic herpes outbreaks; assay type: in vivo, human; conditions: daily dose of 3 grams, outbreaks approximately every other week for 10 years before
Procedure: A daily dose of 3 grams NANA was administered to a subject suffering from chronic herpes outbreaks which had occurred approximately every other week for 10 years.

[1] = cited from earlier work
[2] = rat, in vivo, cited from earlier work
[3] = cited from earlier work; remark: listed apart in the source

For `CC(=O)N[C@H]1[C@H]([C@H](O)[C@H](O)CO)OC(O)(C(=O)O)C[C@@H]1O` (stereo partly drawn) [NANA, N-acetylneuraminic acid], the herpes outbreaks (herpes) is listed as “has not had a herpes outbreak for two months”, the absorption after ingestion ([1]; in vivo) is listed as “rapidly absorbed” and the excretion ([1]; via urine) is listed as “quickly excreted”. The toxic effects ([2]; po) was “No toxic effects have been detected”, the NOAEL [2] was 974 mg/kg body weight/day and the solubility in water [3] was “Easily soluble in water”.
